Test results as given in patent US10175256B2, “Compositions and methods utilizing lysophosphatidylcholine scaffolds” (National University Of Singapore, priority 2013, dated 2019).
Values joined by “and” are separate entries in the source; they are usually repeats but may differ in a detail not shown here. Equal values may be shown once.

Experiments:
Mfsd2a = molecular target: T1, Mfsd2a (Mus musculus, UniProt Q9DA75); assay: Competition transport assay with LPC-[3H]palmitate as ligand; format: cell-based; set-up: expressed in transfected cells; host or cells: HEK293; settings: 25 μM LPC-[3H]palmitate; for competition of foscholines with LPC-[3H]palmitate: 250 μM competitor, 15 mins; for competition for transport/uptake of LPC-[3H]palmitate: 10-fold molar excess (250 μM) competitor, 30 mins (PAF 15 mins)
T1 sequence (Q9DA75 1-534): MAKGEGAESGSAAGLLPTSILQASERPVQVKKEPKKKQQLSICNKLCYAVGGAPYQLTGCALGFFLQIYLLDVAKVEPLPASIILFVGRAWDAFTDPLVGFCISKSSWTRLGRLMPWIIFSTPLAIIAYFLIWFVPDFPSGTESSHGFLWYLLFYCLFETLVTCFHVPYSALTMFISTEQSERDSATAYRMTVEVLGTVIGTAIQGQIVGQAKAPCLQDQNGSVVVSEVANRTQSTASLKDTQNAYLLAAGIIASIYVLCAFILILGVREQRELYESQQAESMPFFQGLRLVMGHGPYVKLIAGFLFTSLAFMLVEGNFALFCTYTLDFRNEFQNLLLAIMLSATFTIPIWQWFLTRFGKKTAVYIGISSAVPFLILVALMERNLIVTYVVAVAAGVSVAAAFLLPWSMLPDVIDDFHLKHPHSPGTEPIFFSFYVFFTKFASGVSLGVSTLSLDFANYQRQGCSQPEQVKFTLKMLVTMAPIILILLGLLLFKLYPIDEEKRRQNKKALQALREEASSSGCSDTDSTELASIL
Procedure: Briefly, 24 h post transfection of HEK293 cells with pcDNA3.1Mfsd2a (WT), pcDNA3.1Mfsd2aD92A (D92A), pcDNA3.1Mfsd2aD96A, or pcDNA3.1 (mock) plasmids were washed once with serum-free DMEM medium before addition of a mixture of 25 μM radiolabeled LPC-palmitate and 250 μM cold competitors, which were dissolved in 12% BSA. Total BSA concentration was kept constant in samples with or without cold competitors. Assays were performed at 37° C. for 30 mins. Competition assays with other LPC analogs such as foscholine detergents, and PAF were performed under the same conditions except for 15 mins. The reduced reaction time was necessary in order to limit potential negative effects of detergents and bioactive lipids on cell survival. All assays were performed in 12 well-plates with triplicates and at 37° C.
We next sought to determine ligand specificity and the chemical features of the LPC ligands that are required for transport by Mfsd2a.

mouse Mfsd2a [1] = molecular target: T2, mouse Mfsd2a (Mus musculus, UniProt Q9DA75); assay: In vitro transport (uptake) of radiolabeled and fluorescent LPCs in HEK293 cells overexpressing Mfsd2a; format: cell-based; settings: HEK293 cells expressing Mfsd2a
T2 construct: expressed in transfected cells; host or cells: HEK293
T2 sequence (Q9DA75 1-534): T1 sequence (Q9DA75 1-534)
Procedure: Uptake assays of radiolabeled LPCs or fluorescent LPCs were tested using HEK293 cells overexpressing Mfsd2a and mutants constructs. Briefly, HEK293 cells at 90-95% confluency were transfected using LIPOFECTAMINE 2000 (Invitrogen) with pcDNA3.1Mfsd2a (WT), pcDNA3.1Mfsd2aD92A (D92A), pcDNA3.1Mfsd2aD96A (D96A), or pcDNA3.1 (mock) plasmids. Uptake assays were performed after 24 hours of transfections. Prior to ligand incubation, HEK293 transfected cells were washed with serum-free DMEM before assays. For concentration and time dependent assays, radiolabeled LPCs were diluted in pre-warmed DMEM media. For sodium dependent assay, radiolabeled LPCs were diluted in transport buffer (5 mM KCl, 10 mM Hepes, pH 7.4) with 150 mM NaCl or 150 mM choline chloride. For sodium concentration dependent assays, any reductions in the concentration of NaCl were replaced by choline chloride in order to maintain a constant cation molarity of 150 mM. All assays were performed in 12 well-plates with triplicates and at 37° C.

mouse Mfsd2a [2] = molecular target: T2, mouse Mfsd2a; assay: TLC analysis of phospholipids (bio-incorporation of LPC into PC); format: cell-based; settings: 10-fold molar excess of competitor
Procedure: HEK293 cells overexpressing with pcDNA3.1Mfsd2a (WT), pcDNA3.1Mfsd2aD92A (D92A), pcDNA3.1Mfsd2aD96A, or pcDNA3.1 (mock) plasmids or human Mfsd2a (in Sport6 plasmid) were washed once with serum-free DMEM medium before incubation with 50 μM radiolabeled LPC [^14C]oleate, LPC [^14C]DHA or with 50 μM TopFluor-LPC and NBD-LPC. Lipids were extracted twice with HIP buffer for 30 mins. Lipids were dried with nitrogen stream and reconstituted in chloroform and spotted on TLC plates (Milipore). Solvent for phospholipid separation was chloroform/methanol/ammonia solution (25%) (50:25:6, per volume). TLC plates of radiolabeled phospholipids were dried for 30 mins and exposed overnight to Phosphorscreens and scanned with Typhoon FLA 9000 scanner (Agilent). TLC plates of fluorescent phospholipids were scanned with Typhoon FLA 9000 scanner and quantified using Imagequant software.

mouse Mfsd2a [3] = molecular target: T2, mouse Mfsd2a; assay: Cell-based free fatty acid transport/uptake in Mfsd2a expressing HEK293 cells (mass spectrometry, TLC; Table 1); settings: replicate columns; for Amount of lipid species, mol percent in total phospholipid analysed / Amount of each lipid species normalized to internal standard, mol percent in total phospholipid analysed: Mfsd2a expressing HEK293 cells
Procedure, shortened: (§1)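 HEK293 cells expressing mouse Mfsd2a, or mock controls, were incubated overnight with 100 μM BSA-complexed fatty acids. Lipids were extracted in hexane:isopropanol (3:2) and phospholipid species quantified by HPLC-MS/MS against spiked internal standards. For TLC, cells received 100 μM [^14C]-oleate overnight, and phospholipids and neutral lipids were resolved.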

mouse Mfsd2a [4] = assay: as above; settings: MS, replicate columns; for Amount of each lipid species normalized to internal standard, mol percent in total phospholipid analysed / Amount of lipid species, mol percent in total phospholipid analysed: mock HEK293 cells
Procedure, shortened: as §1

[5] = Mfsd2a expressing HEK293 cells incubated with 100 uM Arachidonic fatty acid/BSA complex overnight, MS
[6] = 100 uM Alpha-linolenic fatty acid/BSA complex overnight
[7] = 100 uM Docosahexaenoic acid/BSA complex overnight, MS
[8] = 100 uM Oleic fatty acid/BSA complex overnight, MS
[9] = mock HEK293 cells incubated with 100 uM Arachidonic fatty acid/BSA complex overnight
[10] = 100 uM Docosahexaenoic acid/BSA complex overnight
[11] = 100 uM Linoleic fatty acid/BSA complex overnight
[12] = 100 uM Oleic fatty acid/BSA complex overnight

## CCCCCCCCCCCCCCCCOP(=O)([O-])OCC[N+](C)(C)C [Miltefosine]
Mfsd2a
  competition of foscholines with LPC-[3H]palmitate: strong competition

## lysophosphatidylserine [LPS]
Mfsd2a
  competition for transport/uptake of LPC-[3H]palmitate: weak competition

## CCCCCCCCCCCCC/C=C/[C@@H](O)[C@@H](N)COP(=O)([O-])OCC[N+](C)(C)C [Lysosphingomyelin]
Mfsd2a
  competition for transport/uptake of LPC-[3H]palmitate: competed
Mfsd2a; listed as lysosphingomyelin
  competition for transport/uptake of LPC-[3H]palmitate: strong competition

## CCCCCCCCOP(=O)([O-])OCC[N+](C)(C)C [Fos-8]
Mfsd2a
  competition of foscholines with LPC-[3H]palmitate: did not compete

## CCCCCCCCCCCCCCCC(=O)OC[C@@H](O)COP(=O)([O-])OCC[N+](C)(C)C [LPC-[^3H]palmitate, 1-palmitoyl 2-lysophosphocholine]
Mouse Mfsd2a [1]
  comparison of Mfsd2a-mediated uptake (capacity to transport): highest capacity to transport LPC-DHA, followed by LPC-oleate, and LPC-palmitate

## lysophosphatidylethanolamine [LPE]
Mfsd2a
  competition for transport/uptake of LPC-[3H]palmitate: weak competition

## lysophosphatidic acid [LPA]
Mfsd2a
  competition for transport/uptake of LPC-[3H]palmitate: non-competitive

## CCCCCCCCCCOP(=O)([O-])OCC[N+](C)(C)C [Fos-10]
Mfsd2a
  competition of foscholines with LPC-[3H]palmitate: did not compete

## CCCCCCCCCCCCCCCCOC[C@@H](O)COP(=O)([O-])OCC[N+](C)(C)C [lysoplatelet activating factor]
Mfsd2a
  competition for transport/uptake of LPC-[3H]palmitate: strong competitors

## CCCCCCCCCCCCCCCCCC(=O)OC[C@@H](O)COP(=O)([O-])OCC[N+](C)(C)C [LPC-18:0]
Mouse Mfsd2a [2]
  effect of cold LPC on transport of NBD-LPC: suppressed

## C[N+](C)(C)CCOP(=O)([O-])OC[C@H](O)CO [glycerophosphatidylcholine, alpha-glycerylphosphocholine]
Mfsd2a
  competition for transport/uptake of LPC-[3H]palmitate: not a competitor

## CCCCCCCCCCCCOP(=O)([O-])OCC[N+](C)(C)C [Fos-12]
Mfsd2a
  competition of foscholines with LPC-[3H]palmitate: did not compete

## CCCCCCCCCCCCC/C=C/[C@@H](O)[C@@H](N)COP(=O)(O)O [sphingosine-1-phosphate]
Mfsd2a
  competition for transport/uptake of LPC-[3H]palmitate: not a competitor
Mfsd2a; listed as sphingosine 1-phosphate
  competition for transport/uptake of LPC-[3H]palmitate: did not compete

## CCCCCCCCCCCCCCCCCC(=O)OC[C@@H](O)COP(=O)(O)O[C@@H]1[C@H](O)[C@H](O)[C@@H](O)[C@H](O)[C@H]1O [LPI18:0]
Mouse Mfsd2a [3]; [5]
  Amount of each lipid species, mol percent in total phospholipid analysed: 0.02508 mol percent and 0.03053 mol percent and 0.02667 mol percent and 0.03031 mol percent
Mouse Mfsd2a [3]; Mfsd2a expressing HEK293 cells incubated with 100 uM Eicosapentaenoic fatty acid/BSA complex overnight, MS
  Amount of each lipid species, mol percent in total phospholipid analysed: 0.02916 mol percent and 0.03081 mol percent and 0.03115 mol percent and 0.03571 mol percent
Mouse Mfsd2a [3]; [6]
  Amount of lipid species, mol percent in total phospholipid analysed: 0.03202 mol percent and 0.03143 mol percent and 0.03738 mol percent and 0.03614 mol percent
Mouse Mfsd2a [3]; [7]
  Amount of each lipid species normalized to internal standard, mol percent in total phospholipid analysed: 0.03395 mol percent and 0.02821 mol percent and 0.03136 mol percent and 0.02514 mol percent
Mouse Mfsd2a [3]; 100 uM Linoleic fatty acid/BSA complex overnight, MS
  Amount of lipid species, mol percent in total phospholipid analysed: 0.03216 mol percent and 0.02682 mol percent and 0.02809 mol percent and 0.04343 mol percent
Mouse Mfsd2a [3]; [8]
  Amount of lipid species, mol percent in total phospholipid analysed: 0.02837 mol percent and 0.02931 mol percent and 0.02721 mol percent and 0.02894 mol percent
Mouse Mfsd2a [4]; [9]
  Amount of each lipid species, mol percent in total phospholipid analysed: 0.03307 mol percent and 0.03421 mol percent and 0.02228 mol percent
Mouse Mfsd2a [4]; mock HEK293 cells incubated with 100 uM Eicosapentaenoic fatty acid/BSA complex overnight
  Amount of each lipid species, mol percent in total phospholipid analysed: 0.03631 mol percent and 0.04031 mol percent and 0.03846 mol percent
Mouse Mfsd2a [4]; [10]
  Amount of each lipid species normalized to internal standard, mol percent in total phospholipid analysed: 0.0354 mol percent and 0.03721 mol percent and 0.03756 mol percent
Mouse Mfsd2a [4]; [11]
  Amount of lipid species, mol percent in total phospholipid analysed: 0.03365 mol percent and 0.03811 mol percent and 0.02692 mol percent
Mouse Mfsd2a [4]; [12]
  Amount of lipid species, mol percent in total phospholipid analysed: 0.02649 mol percent and 0.03117 mol percent and 0.0307 mol percent

## CCCCCCCCCCCCCC/C=C\OC[C@@H](O)COP(=O)(O)OCCN [LysoPE16:0p]
Mouse Mfsd2a [3]; [5]
  Amount of each lipid species, mol percent in total phospholipid analysed: 2.79 mol percent and 2.681 mol percent and 2.307 mol percent and 2.64 mol percent
Mouse Mfsd2a [4]; [9]
  Amount of each lipid species, mol percent in total phospholipid analysed: 3.439 mol percent and 2.895 mol percent and 2.928 mol percent

## platelet activating factor
Mfsd2a
  competition for transport/uptake of LPC-[3H]palmitate: strong competitors
Mfsd2a; listed as PAF
  competition for transport/uptake of LPC-[3H]palmitate: strong competition

## CCCCCCCCCCCCCCCCCC/C=C\OC[C@@H](O)COP(=O)(O)OCCN [Lyso PE20:0p]
Mouse Mfsd2a [3]; [6]
  Amount of lipid species, mol percent in total phospholipid analysed: 0.4144 mol percent and 0.2832 mol percent and 0.3195 mol percent and 0.1905 mol percent
Mouse Mfsd2a [3]; [11]
  Amount of lipid species, mol percent in total phospholipid analysed: 0.1851 mol percent and 0.2714 mol percent and 0.2999 mol percent and 0.1862 mol percent
Mouse Mfsd2a [3]; [7]
  Amount of each lipid species normalized to internal standard, mol percent in total phospholipid analysed: 0.1999 mol percent and 0.2885 mol percent and 0.2131 mol percent and 0.1906 mol percent
Mouse Mfsd2a [3]; 100 uM Eicosapentaenoic acid/BSA complex overnight, MS
  Amount of each lipid species normalized to internal standard, mol percent in total phospholipid analysed: 0.1715 mol percent and 0.2585 mol percent and 0.309 mol percent and 0.2898 mol percent
Mouse Mfsd2a [3]; [8]
  Amount of lipid species, mol percent in total phospholipid analysed: 0.184 mol percent and 0.3068 mol percent and 0.1973 mol percent and 0.2871 mol percent
Mouse Mfsd2a [4]; [10]
  Amount of each lipid species normalized to internal standard, mol percent in total phospholipid analysed: 0.1737 mol percent and 0.2656 mol percent and 0.1958 mol percent
Mouse Mfsd2a [4]; 100 uM Eicosapentaenoic acid/BSA complex overnight
  Amount of each lipid species normalized to internal standard, mol percent in total phospholipid analysed: 0.4498 mol percent and 0.1976 mol percent and 0.1696 mol percent
Mouse Mfsd2a [4]; [12]
  Amount of lipid species, mol percent in total phospholipid analysed: 0.1867 mol percent and 0.2217 mol percent and 0.228 mol percent
